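Exposure lasted 48 hours, with cells grown in 96-well plates and compounds tested at five concentrations. TGI: total growth inhibition.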
Experiments:
Assay in all cases: inhibition of tumour cell growth, NCI panel, 48 h
[1] = system: NCI-H522 lung
[2] = system: NCI/ADR-RES ovarian
[3] = system: ACHN renal
[4] = system: K-562 leukemia
[5] = system: SK-OV-3 ovarian
[6] = system: SF-539 CNS
[7] = system: MCF7 breast
[8] = system: BT-549 breast
[9] = system: NCI-H226 lung
[10] = system: UACC-62 melanoma
[11] = system: HS 578T breast
[12] = system: PC-3 prostate
[13] = system: SW-620 colon
[14] = system: U251 CNS
[15] = system: MDA-MB-231 breast
[16] = system: RPMI-8226 leukemia
[17] = system: OVCAR-3 ovarian
[18] = system: EKVX NSCLC
[19] = system: A549 NSCLC
[20] = system: MDA-N
[21] = system: MDA-MB-435
[22] = system: SNB-75 CNS
[23] = system: SK-MEL-5 melanoma
[24] = system: COLO 205 colon
[25] = system: NCI-H460 lung
[26] = system: SF-268 CNS
[27] = system: IGROV1 ovarian
[28] = system: SF-295 CNS
[29] = system: M14 melanoma
[30] = system: MALME-3M melanoma
[31] = system: SK-MEL-28 melanoma
[32] = system: 786-0 renal
[33] = system: A498 renal
[34] = system: UACC-257 melanoma
[35] = system: UO-31 renal
[36] = system: RXF 393 renal
[37] = system: TK-10 renal
[38] = system: SNB-19 CNS
[39] = system: KM12 colon
[40] = system: HCT-15 colon
[41] = system: SN12C renal
[42] = system: HOP-62 NSCLC
[43] = system: SK-MEL-2 melanoma
[44] = system: HCT-116 colon
[45] = system: NCI-H23 lung
[46] = system: OVCAR-4 ovarian
[47] = system: OVCAR-5 ovarian
[48] = system: OVCAR-8 ovarian
[49] = system: HOP-92 NSCLC
[50] = system: T-47D breast
[51] = system: CAKI-1 renal
[52] = system: HT29 colon
[53] = system: DU-145 prostate
[54] = system: MOLT-4 leukemia
[55] = system: CCRF-CEM leukemia
[56] = system: HCC-2998 colon
[57] = system: HL-60(TB) leukemia
[58] = system: LOX IMVI melanoma
[59] = system: SR leukemia

## Cc1cc([N+](=O)[O-])c(C)c(Br)c1C
[1]
  TGI: > 100 µM
[2]
  TGI: > 100 µM
[3]
  TGI: > 100 µM
[4]
  TGI: > 100 µM
[5]
  TGI: > 100 µM
[6]
  TGI: > 100 µM
[7]
  TGI: > 100 µM
[8]
  TGI: > 100 µM
[9]
  TGI: > 100 µM
[10]
  TGI: > 100 µM
[11]
  TGI: > 100 µM
[12]
  TGI: > 100 µM
[13]
  TGI: > 100 µM
[14]
  TGI: > 100 µM
[15]
  TGI: > 100 µM
[16]
  TGI: > 100 µM
[17]
  TGI: > 100 µM
[18]
  TGI: > 100 µM
[19]
  TGI: > 100 µM
[20]
  TGI: > 100 µM
[21]
  TGI: > 100 µM
[22]
  TGI: > 100 µM
[23]
  TGI: > 100 µM
[24]
  TGI: > 100 µM
[25]
  TGI: > 100 µM
[26]
  TGI: > 100 µM
[27]
  TGI: > 100 µM
[28]
  TGI: > 100 µM
[29]
  TGI: > 100 µM
[30]
  TGI: > 100 µM
[31]
  TGI: > 100 µM
[32]
  TGI: > 100 µM
[33]
  TGI: > 100 µM
[34]
  TGI: > 100 µM
[35]
  TGI: > 100 µM
[36]
  TGI: > 100 µM
[37]
  TGI: > 100 µM
[38]
  TGI: > 100 µM
[39]
  TGI: > 100 µM
[40]
  TGI: > 100 µM
[41]
  TGI: > 100 µM
[42]
  TGI: > 100 µM
[43]
  TGI: > 100 µM
[44]
  TGI: > 100 µM
[45]
  TGI: > 100 µM
[46]
  TGI: > 100 µM
[47]
  TGI: > 100 µM
[48]
  TGI: > 100 µM
[49]
  TGI: > 100 µM
[50]
  TGI: > 100 µM
[51]
  TGI: > 100 µM
[52]
  TGI: > 100 µM
[53]
  TGI: > 100 µM

## CO[C@H]1C[C@H](O[C@H]2CC[C@]3(C=O)[C@H]4CC[C@]5(C)[C@@H](C6=CC(=O)OC6)CC[C@]5(O)[C@@H]4CC[C@]3(O)C2)O[C@H](C)[C@H]1O
[1]
  TGI: 0.499 µM
[2]
  TGI: 2.3 µM
[3]
  TGI: 1.92 µM
[4]
  TGI: 1.35 µM
[5]
  TGI: 0.815 µM
[6]
  TGI: 0.218 µM
[7]
  TGI: 13.1 µM
[54]
  TGI: 2.89 µM
[8]
  TGI: 0.818 µM
[9]
  TGI: 1.28 µM
[10]
  TGI: 1.27 µM
[11]
  TGI: > 31.6 µM
[12]
  TGI: 1.04 µM
[13]
  TGI: 2.71 µM
[14]
  TGI: 2.63 µM
[15]
  TGI: 5.34 µM
[16]
  TGI: 6.6 µM
[17]
  TGI: 0.556 µM
[18]
  TGI: 0.79 µM
[19]
  TGI: 0.198 µM
[20]
  TGI: 1.87 µM
[21]
  TGI: 1.47 µM
[55]
  TGI: > 100 µM
[22]
  TGI: 3.13 µM
[23]
  TGI: 0.385 µM
[24]
  TGI: 1.83 µM
[56]
  TGI: 8.36 µM
[25]
  TGI: 0.176 µM
[26]
  TGI: 0.577 µM
[27]
  TGI: 7.86 µM
[28]
  TGI: 0.671 µM
[29]
  TGI: 4.19 µM
[30]
  TGI: 2.86 µM
[31]
  TGI: 5.37 µM
[32]
  TGI: 1.57 µM
[33]
  TGI: 1.34 µM
[34]
  TGI: 1.43 µM
[35]
  TGI: 2.53 µM
[36]
  TGI: 0.189 µM
[37]
  TGI: 0.758 µM
[57]
  TGI: 2.51 µM
[38]
  TGI: 4.8 µM
[39]
  TGI: 1.93 µM
[40]
  TGI: 0.732 µM
[41]
  TGI: 0.201 µM
[42]
  TGI: 0.135 µM
[43]
  TGI: 2.04 µM
[44]
  TGI: 0.737 µM
[45]
  TGI: 0.787 µM
[46]
  TGI: 0.341 µM
[58]
  TGI: 8.31 µM
[47]
  TGI: 1.35 µM
[48]
  TGI: 1.03 µM
[49]
  TGI: 1.73 µM
[50]
  TGI: 5.31 µM
[51]
  TGI: 0.0947 µM
[53]
  TGI: 0.462 µM

## CC1OC2OC3C(OCC(O)C3O)OC(=O)[C@]34CCC(C)(C)CC3C3=CCC5[C@@]6(C)C[C@H](O)[C@H](OC7OC(CO)C(O)C(O)C7OC7OCC(OC(=O)CC(C)(O)CC(=O)OC1C(OC1OC(CO)C(O)C(O)C1O)C2O)C(O)C7O)[C@@](C)(CO)C6CC[C@@]5(C)[C@]3(C)CC4 (stereo partly drawn)
[1]
  TGI: 22.5 µM
[2]
  TGI: 19.1 µM
[3]
  TGI: 17.9 µM
[5]
  TGI: 22.8 µM
[6]
  TGI: 26.8 µM
[7]
  TGI: 23.6 µM
[54]
  TGI: 21.3 µM
[8]
  TGI: 21.1 µM
[9]
  TGI: 34 µM
[10]
  TGI: 19.2 µM
[11]
  TGI: 30.1 µM
[12]
  TGI: 16.9 µM
[13]
  TGI: 20.3 µM
[14]
  TGI: 18.6 µM
[15]
  TGI: 21.1 µM
[16]
  TGI: 25.2 µM
[17]
  TGI: 19.3 µM
[19]
  TGI: 13.5 µM
[20]
  TGI: 7.76 µM
[21]
  TGI: 11.4 µM
[55]
  TGI: 28 µM
[22]
  TGI: 22.9 µM
[23]
  TGI: 28.8 µM
[24]
  TGI: 7.61 µM
[56]
  TGI: 8.52 µM
[25]
  TGI: 22.7 µM
[26]
  TGI: 22.2 µM
[27]
  TGI: 16.2 µM
[59]
  TGI: 17 µM
[28]
  TGI: 13.4 µM
[29]
  TGI: 15 µM
[30]
  TGI: 17.5 µM
[31]
  TGI: 6.22 µM
[32]
  TGI: 15.5 µM
[34]
  TGI: 12.7 µM
[35]
  TGI: 14.9 µM
[37]
  TGI: 21.1 µM
[57]
  TGI: 6.29 µM
[38]
  TGI: 22.9 µM
[39]
  TGI: 19.3 µM
[40]
  TGI: 22.5 µM
[41]
  TGI: 23.3 µM
[42]
  TGI: 8.75 µM
[43]
  TGI: 13.5 µM
[44]
  TGI: 16.5 µM
[45]
  TGI: 14.1 µM
[46]
  TGI: 17.1 µM
[58]
  TGI: 20.6 µM
[47]
  TGI: 18.9 µM
[48]
  TGI: 23.6 µM
[49]
  TGI: 21.6 µM
[50]
  TGI: 20.3 µM
[51]
  TGI: 16.1 µM
[52]
  TGI: 19.4 µM
[53]
  TGI: 17.3 µM

## N#Cc1nc(C#N)n(C(=O)c2ccccc2)c1NC(=O)c1ccccc1
[1]
  TGI: > 100 µM
[2]
  TGI: > 100 µM
[3]
  TGI: > 100 µM
[4]
  TGI: > 100 µM
[5]
  TGI: > 100 µM
[6]
  TGI: > 100 µM
[7]
  TGI: > 100 µM
[54]
  TGI: > 100 µM
[8]
  TGI: > 100 µM
[9]
  TGI: > 100 µM
[10]
  TGI: > 100 µM
[11]
  TGI: > 100 µM
[12]
  TGI: > 100 µM
[13]
  TGI: > 100 µM
[14]
  TGI: > 100 µM
[15]
  TGI: > 100 µM
[16]
  TGI: > 100 µM
[17]
  TGI: > 100 µM
[18]
  TGI: > 100 µM
[19]
  TGI: > 100 µM
[20]
  TGI: > 100 µM
[21]
  TGI: > 100 µM
[55]
  TGI: > 100 µM
[22]
  TGI: > 100 µM
[23]
  TGI: > 100 µM
[24]
  TGI: > 100 µM
[56]
  TGI: > 100 µM
[25]
  TGI: > 100 µM
[26]
  TGI: > 100 µM
[27]
  TGI: > 100 µM
[28]
  TGI: > 100 µM
[29]
  TGI: > 100 µM
[30]
  TGI: > 100 µM
[31]
  TGI: > 100 µM
[32]
  TGI: > 100 µM
[33]
  TGI: > 100 µM
[34]
  TGI: > 100 µM
[35]
  TGI: > 100 µM
[36]
  TGI: > 100 µM
[37]
  TGI: > 100 µM
[57]
  TGI: > 100 µM
[38]
  TGI: > 100 µM
[39]
  TGI: > 100 µM
[40]
  TGI: > 100 µM
[41]
  TGI: > 100 µM
[42]
  TGI: > 100 µM
[43]
  TGI: > 100 µM
[44]
  TGI: > 100 µM
[45]
  TGI: > 100 µM
[46]
  TGI: > 100 µM
[58]
  TGI: > 100 µM
[47]
  TGI: > 100 µM
[48]
  TGI: > 100 µM
[49]
  TGI: > 100 µM
[50]
  TGI: > 100 µM
[51]
  TGI: > 100 µM
[52]
  TGI: > 100 µM
[53]
  TGI: > 100 µM

Source: PubChem BioAssay (NCI)
